# Results published in article PMC5733478, “A Non-imaging High Throughput Approach to Chemical Library Screening at the Unmodified Adenosine-A3 Receptor in Living Cells” (Frontiers in Pharmacology, 2017).
# Counter-ions that a name gives are not always drawn.
# Molecular target: T1, human A3AR (Homo sapiens, UniProt P0DMS8)
# T1 construct: expressed in transfected cells
# T1 sequence (P0DMS8 1-318): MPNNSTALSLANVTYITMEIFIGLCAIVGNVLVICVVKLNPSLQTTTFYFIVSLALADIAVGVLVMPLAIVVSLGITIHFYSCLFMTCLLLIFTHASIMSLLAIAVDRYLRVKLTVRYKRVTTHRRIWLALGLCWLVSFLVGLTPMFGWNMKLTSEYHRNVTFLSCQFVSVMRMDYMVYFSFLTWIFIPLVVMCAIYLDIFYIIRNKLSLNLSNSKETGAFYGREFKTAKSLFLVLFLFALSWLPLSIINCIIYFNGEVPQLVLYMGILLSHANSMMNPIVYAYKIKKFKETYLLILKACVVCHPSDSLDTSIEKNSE
# Assay: LOPAC library primary screen: single concentration (10 μM) inhibition of 25 nM CA200645 binding, PHERAstar FS
# Conditions: not given
Compound,% 25 nM CA200645 binding [%],% Total CA200645 binding [%]
NCC(CC(=O)O)c1ccc(Cl)cc1 (racemic) [(±)-Baclofen],99.6 ± 6.9,–
Cc1nc(N=Nc2ccc(C(=O)O)cc2)c(COP(=O)(O)O)c(C=O)c1O [MRS 2159],83.0 ± 11.6,–
"CCCN1CCOC2c3cc(O)ccc3OCC21.Cl (racemic) [(±)-PD 128,907 hydrochloride]",103.2 ± 2.1,–
COCc1nc2c([nH]1)c(=O)n(C)c(=O)n2CC(C)C,99.2 ± 10.1,–
NNC(=O)c1ccc(O)cc1 [4-Hydroxybenzhydrazide],105.3 ± 8.4,–
CC(Cc1ccc(O)c(O)c1)C(C)Cc1ccc(O)c(O)c1 (stereo not drawn),79.3 ± 28.3,–
"CNC(=O)[C@H]1O[C@@H](n2cnc3c(NCc4cccc(I)c4)ncnc32)[C@H](O)[C@@H]1O [IB-MECA, reference compound]",36.3 ± 4.0,36.3 ± 4.0
CC[C@@H](CO)NC(=O)[C@@H]1C=C2c3cccc4c3c(cn4C)C[C@H]2N(C)C1 [Methysergide maleate],92.3 ± 21.2,–
CC(C)NCC(O)COc1ccc(CCOCC2CC2)cc1 (stereo not drawn) [Betaxolol hydrochloride],98.4 ± 4.9,–
CC[C@@]1(O)C(=O)OCc2c1cc1n(c2=O)Cc2cc3c(CN(C)C)c(O)ccc3nc2-1.Cl.O [Topotecan hydrochloride hydrate],102.0 ± 7.8,–
Cl.c1ccc2sc(C3(N4CCCCC4)CCCCC3)cc2c1 [BTCP hydrochloride],94.3 ± 14.0,–
"C[N+]1(C)CCc2cc3c(cc2[C@H]1[C@@H]1OC(=O)c2c1ccc1c2OCO1)OCO3.[Br-] [(-)-Bicuculline methbromide, 1(S), 9(R)]",67.4 ± 5.9,–
COc1cc(CC(=O)O)ccc1O [4-Hydroxy-3-methoxyphenylacetic acid],94.9 ± 9.6,–
NC[C@@H]1O[C@H](O[C@H]2[C@@H](O)[C@H](O[C@@H]3[C@@H](O)[C@H](N)C[C@H](N)[C@H]3O[C@H]3O[C@H](CO)[C@@H](O)[C@H](O)[C@H]3N)O[C@@H]2CO)[C@H](N)[C@@H](O)[C@@H]1O [Paromomycin sulfate],106.3 ± 7.8,–
Clc1ccccc1C(c1ccccc1)(c1ccccc1)n1ccnc1 [Clotrimazole],74.0 ± 15.0,–
CC12CC3CC(C)(C1)CC(N)(C3)C2 [Memantine hydrochloride],109.9 ± 10.5,–
CCc1ccccc1OC[C@@H](O)CN[C@H]1CCCc2ccccc21.O=C(O)C(=O)O [SR 59230A oxalate],94.8 ± 26.7,–
Cl.Nc1c2c(nc3ccccc13)CCCC2,100.2 ± 15.6,–
CCN(CC)CCCN(c1ccccc1)C1Cc2ccccc2C1 [Aprindine hydrochloride],96.8 ± 13.3,–
CN1CCC(=C2c3ccccc3C=Cc3ccccc32)CC1 [Cyproheptadine hydrochloride],96.0 ± 5.5,–
Br.CCCN(CCC)C1CCc2cccc(O)c2C1 (racemic) [(±)-8-Hydroxy-DPAT hydrobromide],98.2 ± 1.8,–
C[C@H]1C[C@H]2[C@@H]3CCC4=CC(=O)C=C[C@]4(C)[C@@]3(Cl)[C@@H](O)C[C@]2(C)[C@@]1(O)C(=O)CO [Beclomethasone],93.7 ± 1.6,–

Compound,% 25 nM CA200645 binding [%],% Total CA200645 binding [%]
[Cl-].[Li+] [Lithium Chloride],99.9 ± 5.2,–
NCCCCN [Putrescine dihydrochloride],106.2 ± 11.7,–
O=c1[nH]c2ccccc2n1C1CCN(CCCC(c2ccc(F)cc2)c2ccc(F)cc2)CC1 [Pimozide],78.2 ± 10.9,–
CNC(=O)Oc1ccc2c(c1)[C@]1(C)CCN(C)[C@@H]1N2C [(-)-Physostigmine],99.3 ± 6.1,–
CN(C)CCCN1c2ccccc2CCc2ccccc21 [Imipramine hydrochloride],99.2 ± 4.6,–
NCCCCN=C(N)N [Agmatine sulfate],97.6 ± 11.6,–
CC(NC(C)(C)C)C(=O)c1cccc(Cl)c1 (stereo not drawn) [Bupropion hydrochloride],98.9 ± 4.9,–
S=C(NC1CCCCC1)N1CCC(c2cnc[nH]2)CC1 [Thioperamide maleate],99.7 ± 10.4,–
S(-)-UH-301 hydrochloride,106.6 ± 12.1,–
Cn1c(=O)c2[nH]c(-c3ccc(S(=O)(=O)O)cc3)nc2n(C)c1=O [8-(p-Sulfophenyl)theophylline],97.2 ± 13.7,–
Cc1ccc(S(=O)(=O)/C=C/C#N)cc1 [Bay 11-7082],104.6 ± 21.3,–
CCC(C)N(C)C(=O)c1cc2ccccc2c(-c2ccccc2Cl)n1 (stereo not drawn) [PK 11195],93.2 ± 6.1,–
"Nc1nc(Cl)nc2c1ncn2[C@@H]1O[C@H](CO)[C@@H](O)[C@H]1O [2-CADO, reference compound]",–,51.0 ± 6.7
Cl.NC1(C(=O)O)CC1,88.3 ± 14.5,–
CN(C)[C@@H]1C(O)=C(C(N)=O)C(=O)[C@@]2(O)C(O)=C3C(=O)c4c(O)ccc(Cl)c4[C@@H](O)[C@H]3C[C@@H]12 [Demeclocycline hydrochloride],98.1 ± 10.5,–
COc1ccc2c(c1)c(CC(=O)O)c(C)n2C(=O)c1ccccc1,59.0 ± 9.2,–
N.N.O=C([O-])C1(C(=O)[O-])CCC1.[Pt+2] [Carboplatin],97.7 ± 5.9,–
CCCNCC(O)COc1ccccc1C(=O)CCc1ccccc1 (stereo not drawn) [Propafenone hydrochloride],111.3 ± 10.1,–
COc1ccc(OC)c(C(O)C(C)N)c1 (stereo not drawn) [Methoxamine hydrochloride],132.3 ± 57.0,–
CC(C)NC[C@@H](O)c1ccc(O)c(O)c1.O=C(O)C(O)C(O)C(=O)O [S(+)-Isoproterenol (+)-bitartrate],101.2 ± 2.4,–
COC[C@H]1OC(=O)c2coc3c2[C@@]1(C)C1=C(C3=O)[C@@H]2CCC(=O)[C@@]2(C)C[C@H]1OC(C)=O [Wortmannin from Penicillium funiculosum],82.6 ± 17.7,–
COc1ccccc1N1CCN(CC(O)COc2cccc3ccccc23)CC1.Cl.Cl (stereo not drawn) [Naftopidil dihydrochloride],98.6 ± 14.2,–

Compound,% 25 nM CA200645 binding [%],% Total CA200645 binding [%]
CN(Cc1cnc2nc(N)nc(N)c2n1)c1ccc(C(=O)N[C@@H](CCC(=O)O)C(=O)O)cc1.O [Methotrexate hydrate],100.1 ± 8.9,–
Ro 41-0960,98.8 ± 6.8,–
N.N.N.N.N.N.N.N.N.N.N.N.N.N.[Cl-].[Cl-].[Cl-].[Cl-].[Cl-].[Cl-].[O-2].[O-2].[Ru+3].[Ru+3].[Ru+4] [Ruthenium red],95.4 ± 2.3,–
OC(CCN1CCCCC1)(c1ccccc1)C1CC2C=CC1C2 (stereo not drawn) [Biperiden hydrochloride],86.9 ± 6.4,–
Nc1nc2ccc(Cl)cc2c2nc(-c3ccco3)nn12 [CGS-15943],30.0 ± 3.0,–
COC(=O)Nc1nc2ccc(C(=O)c3cccs3)cc2[nH]1 [Nocodazole],79.0 ± 5.7,–
Cc1nn(-c2ccccc2)c(C)c1/C=N/N1CCN(Cc2ccccc2)CC1 [SANT-1],82.1 ± 15.9,–
c1ccc2cc(-c3ncc[nH]3)ccc2c1 [Benazoline oxalate],98.8 ± 14.3,–
O=c1[nH]c2ccccc2c2ccccc12 [6(5H)-Phenanthridinone],41.6 ± 14.1,–
O=C1NCC2(CCN(CCc3ccccc3)CC2)O1 [Fenspiride hydrochloride],81.2 ± 5.0,–
Cn1cnc2c1c(=O)[nH]c(=O)n2C [Theobromine],101.7 ± 4.5,–
Cc1ccc(N(CC2=NCCN2)c2cccc(O)c2)cc1 [Phentolamine mesylate],98.9 ± 10.7,–
O=c1ccc2ccc(O)c(O)c2o1 [Daphnetin],102.0 ± 13.1,–
Cc1cc(O)c2c(c1)C(=O)c1cc(O)cc(O)c1C2=O [Emodin],52.8± 4.4,–
CP(=O)(O)C1=CCNCC1 [TPMPA],99.7 ± 3.7,–
COc1cc(OC)c(C=C2C(O)=Nc3ccccc32)c(OC)c1 [IC 261],88.8 ± 5.2,–
"MDL 26,630 trihydrochloride",124.5 ± 16.5,–
CC(C)c1c(C(=O)Nc2ccccc2)c(-c2ccccc2)c(-c2ccc(F)cc2)n1CC[C@@H](O)C[C@@H](O)CC(=O)O [Atorvastatin calcium salt trihydrate],97.7 ± 2.2,–
CC(C)C[C@H](NC(=O)[C@H](O)[C@H](N)Cc1ccccc1)C(=O)O [Epibestatin hydrochloride],102.9 ± 13.0,–
NCCc1ccc(O)c(O)c1 [Dopamine hydrochloride],93.0 ± 11.1,–
S=C(Nc1ccccc1)Nc1nccs1 [1-Phenyl-3-(2-thiazolyl)-2-thiourea],94.0 ± 11.6,–

# Same assay, conditions: 10 μM compound, 25 nM CA200645, A3AR CHO cells
row,Compound,hit in LOPAC primary screen (inhibited the binding of CA200645 by >40%)
1,"CCOC(=O)c1cnc2c(cnn2CC)c1NN=C(C)C [etazolate hydrochloride, reference compound]",identified

# Same assay, conditions: % of control wells (1% DMSO and 25 nM CA200645); compounds at 10 µM; whole live cells expressing the A3AR; mean ± SD, three experiments in duplicate
row,Compound,% 25 nM CA200645 binding [%]
1,N[C@@H](Cc1c[nH]c2ccccc12)C(=O)O [L-Tryptophan],100.0 ± 3.7
2,OC(CN1CCC(Cc2ccc(F)cc2)CC1)c1ccc(Cl)cc1 (stereo not drawn) [Eliprodil],98.8 ± 8.5
3,"CCOC(=O)c1cnc2c(cnn2CC)c1NN=C(C)C [etazolate hydrochloride, reference compound]",46.2 ± 5.3
4,Oc1ccc(/C=C/c2cc(O)cc(O)c2)cc1 [Resveratrol],100.3 ± 16.3

# Same assay, conditions: compounds tested at 10 µM; % of control wells (1% DMSO and 25 nM CA200645); whole live cells expressing the A3AR; mean ± SD, three experiments in duplicate
row,Compound,% 25 nM CA200645 binding [%]
1,NC(=O)c1cc(N2CC2)c([N+](=O)[O-])cc1[N+](=O)[O-] [CB 1954],93.7 ± 2.8
